Experiment [1] deals with live cancer cell cultures. Put plainly: Cytometric testing of the patient's cancer cells. In kind it is cell-based, human. As to conditions: for activity in cytometric testing: Example 14, incompletely resected pancreatic cancer; for sensitivity in cytometric testing: Example 18, ascites of metastatic carcinoma of the urachus. The text has this:
Also disclosed are methods for in vitro testing a drug combination on cancer cells of a subject for cancer cell survival, wherein the drug combination comprises tamoxifen, gefitinib, and vinorelbine. The in vitro testing can comprise administering tamoxifen and gefitinib prior to, together with, and/or after, administering vinorelbine. The in vitro testing can comprise measuring the cancer cell survival. Suitable in vitro tests and methods for measuring the cancer cell survival include Differential Staining Cytotoxicity Assay (DiSC), MTT assay, ATP assay, and fluorescein diacetate assay (FDA). MTT assay is a colorimetric assay for assessing cell metabolic activity. Cellular enzymes are capable of reducing the tetrazolium dye MTT 3-(4,5-dimethylthiazol-2-yl)-2,5-diphenyltetrazolium bromide to its insoluble formazan, which has a purple color. ATP assays are procedures that can measure cell viability based on detection of ATP. All living cells, including bacteria, can be detected with ATP assays. Several detection methods can be used, such as colorimetric, fluorescent and bioluminescent. FDA uses a cell-permeant esterase substrate fluorescein diacetate that can serve as a viability probe and that measures both enzymatic activity, which is required to activate its fluorescence, and cell-membrane integrity, which is required for intracellular retention of their fluorescent product.
Use of tamoxifen at a high dose of 80 milligrams per meter squared (the typical dose in conventional cancer treatment is 20 mg daily) and high dose of gefitinib (187 milligrams per meter squared twice daily for 3 days—the typical dose in conventional cancer treatment is 250 mg daily) has been found in cytometric testing using live cancer cell cultures to transport vinorelbine into the cancer cell, producing extraordinary synergy in causing programmed apoptosis in the cancer cells (programmed cancer cell death) while sparing much of the normal tissues and giving dramatic clinical outcomes.

Experiment [2] concerns squamous cell carcinoma of the breast. The experiment is described as follows: TGV therapy case study, triple-negative squamous cell carcinoma of the breast (Example 11). The experiment is classed as in vivo, human. As to conditions: person, before TGV. The text has this:
(§1) The 17 case studies represent patients with metastatic esophageal cancer, metastatic skin cancer, metastatic breast cancer, leptomeningeal breast cancer, metastatic prostate cancer, glioblastoma multiforme, lung cancer, bowel cancer, acute myelogenous leukemia, esthesioneuroblastoma, and urothelial cancer.

The test system of the next experiment is urothelial cancer. Put plainly: TGV therapy case study, urothelial cancer (Example 17). The experiment is classed as in vivo, human. As to conditions: person, before TGV (MVAC together with radiation therapy). How it is done:
as §1
A person with regionally advanced bladder cancer was presented with urothelial cancer in the trigone of their bladder. The patient was treated with radiation therapy and with dose dense MVAC (M—methotrexate, V—vinblastine, A—doxorubicin, C—Cisplatin). […] The patient was then treated with gemcitabine and cisplatin to which they had no response. The patient then had the retroperitoneal lymph nodes radiated to a complete response. The patient was followed monthly and when recurrent disease was discovered in the lung and mediastinum, they were started on Padcev® (Enfortumab vedotin), to which they had no response. The patient was then offered TGV. […] The patient had neutropenia within five days and was admitted. […] It was concluded that the patient should not be given repeated chemotherapy until their bone marrow had recovered.

`O=c1[nH]cc(F)c(=O)[nH]1` [5-fluorouracil]: the “activity in cytometric testing” value in experiment [1] is recorded as “no evidence of response”.
With `COc1cccc2c1C(=O)c1c(O)c3c(c(O)c1C2=O)C[C@@](O)(C(=O)CO)C[C@@H]3O[C@H]1C[C@H](N)[C@H](O)[C@H](C)O1` [Adriamycin], the “response to prior chemotherapy” value in experiment [2] is listed as “refractory”.
Still for that read-out and setting: to `O=P1(N(CCCl)CCCl)NCCCO1` (stereo not shown) [Cytoxan] belongs “refractory”.
Turning to `CC(=O)O[C@@]12CO[C@@H]1C[C@H](O)[C@@]1(C)C(=O)[C@H](O)C3=C(C)[C@@H](OC(=O)[C@H](O)[C@@H](NC(=O)OC(C)(C)C)c4ccccc4)C[C@@](O)([C@@H](OC(=O)c4ccccc4)[C@H]21)C3(C)C` [Taxotere], the “response to prior chemotherapy” value in experiment [2] was “refractory”. For the same compound, the “activity in cytometric testing” value in experiment [1] is reported as “no evidence of response”.
On to `Nc1ccn([C@@H]2O[C@H](CO)[C@@H](O)C2(F)F)c(=O)n1` [gemcitabine], for which, in experiment [1], the “activity in cytometric testing” value is given as “no evidence of response” and the “sensitivity in cytometric testing” value is recorded as “hypersensitivity”.
For `O=C1[O][Pt]2([NH][C@@H]3CCCC[C@H]3[NH]2)[O]C1=O` [oxaliplatin], in that order: “no evidence of response” and “hypersensitivity”.
As for Enfortumab vedotin [Padcev®], in the experiment with urothelial cancer, the “response to prior therapy” value is “no response”.
